Measurements from article PMC12214875 (Molecular Cancer Therapeutics, 2025).

Columns and labels:
[1] = biological target: T1, KIT D816Y (Homo sapiens, UniProt P10721, D816Y); assay: Biochemical kinase assay (radioactive, Reaction Biology); settings: average of two independent experiments
T1 construct: purchased Reaction Biology Corp. (contract assay service)

[2] = biological target: CSF1R (FMS) (Homo sapiens, UniProt P07333); assay: HotSpot kinase profiling panel (398 kinases); type: biochemical; settings: 1 μmol/L, single-dose singlicate
Procedure: (§1) In vitro kinase assays with radioactive assay formats were performed at Reaction Biology Corp. according to their standard protocols. […] IC50 values for KIT-mutant kinases and for FLT3 and VEGFR2 (KDR) were determined with dose–response curves using a 10-dose threefold serial dilution in duplicates. Fitting of dose–response curves and calculation of IC50 values were performed with sigmoidal dose–response equations using GraphPad Prism software (RRID: SCR_002798; version 8).

[3] = biological target: T2, FLT3 (Homo sapiens, UniProt P36888); assay: HotSpot kinase profiling panel (398 kinases); type: biochemical; settings: 1 μmol/L, single-dose singlicate
T2 construct: purchased Reaction Biology Corp. (contract assay service)
Procedure: as §1

[4] = biological target: KIT (Homo sapiens, UniProt P10721); assay: HotSpot kinase profiling panel (398 kinases); type: biochemical; settings: 1 μmol/L, single-dose singlicate
Procedure: as §1

[5] = biological target: LCK (Homo sapiens, UniProt P06239); assay: HotSpot kinase profiling panel (398 kinases); type: biochemical; settings: 1 μmol/L, single-dose singlicate
Procedure: as §1

[6] = biological target: PDGFRA (Homo sapiens, UniProt P16234); assay: HotSpot kinase profiling panel (398 kinases); type: biochemical; settings: 1 μmol/L, single-dose singlicate
Procedure: as §1

[7] = biological target: PDGFRB (Homo sapiens, UniProt P09619); assay: HotSpot kinase profiling panel (398 kinases); type: biochemical; settings: 1 μmol/L, single-dose singlicate
Procedure: as §1

[8] = test system: AKT; assay: Cellular AKT (S473) phosphorylation (Luminex); type: cell-based; settings: GIST cell lines, 45 minutes
Procedure: Supplementary Figure S2: Cellular inhibition of P-ERK1/2 and P-AKT with M4205.
(A)Treatment of KIT mutant cell lines GIST430, GIST430/654 and Kasumi-1 with M4205 for 45 minutes reduced P-T202/Y204-ERK1 / P-T185/Y187-ERK2 level in a dose-dependent manner. (B) Treatment of KIT mutant cell lines GIST430 and GIST430/654 with M4205 for 45 minutes reduced P-AKT level in a dose-dependent manner. Shown are individual experiments with technical duplicates. Signals for P-AKT were below detection level in […]
(1 picture or pasted object on this page, not shown here)

[9] = biological target: KIT D816H (Homo sapiens, UniProt P10721, D816H); assay: Biochemical kinase assay (radioactive, Reaction Biology); design: purchased Reaction Biology Corp. (contract assay service); settings: average of two independent experiments
Chain of KIT D816H (P10721 544-976 D816H): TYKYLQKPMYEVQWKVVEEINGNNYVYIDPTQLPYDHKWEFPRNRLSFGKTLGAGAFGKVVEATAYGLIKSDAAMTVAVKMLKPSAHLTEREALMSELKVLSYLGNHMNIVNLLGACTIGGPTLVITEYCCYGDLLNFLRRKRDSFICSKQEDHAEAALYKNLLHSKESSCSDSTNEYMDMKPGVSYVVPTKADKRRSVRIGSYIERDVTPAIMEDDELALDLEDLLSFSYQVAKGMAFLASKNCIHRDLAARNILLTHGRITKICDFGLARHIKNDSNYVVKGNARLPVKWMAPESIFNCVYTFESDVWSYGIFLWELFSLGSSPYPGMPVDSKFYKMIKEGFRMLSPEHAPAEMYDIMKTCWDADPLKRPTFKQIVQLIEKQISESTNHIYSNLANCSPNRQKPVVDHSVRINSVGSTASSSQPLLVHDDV

T2 sequence (P36888 27-993): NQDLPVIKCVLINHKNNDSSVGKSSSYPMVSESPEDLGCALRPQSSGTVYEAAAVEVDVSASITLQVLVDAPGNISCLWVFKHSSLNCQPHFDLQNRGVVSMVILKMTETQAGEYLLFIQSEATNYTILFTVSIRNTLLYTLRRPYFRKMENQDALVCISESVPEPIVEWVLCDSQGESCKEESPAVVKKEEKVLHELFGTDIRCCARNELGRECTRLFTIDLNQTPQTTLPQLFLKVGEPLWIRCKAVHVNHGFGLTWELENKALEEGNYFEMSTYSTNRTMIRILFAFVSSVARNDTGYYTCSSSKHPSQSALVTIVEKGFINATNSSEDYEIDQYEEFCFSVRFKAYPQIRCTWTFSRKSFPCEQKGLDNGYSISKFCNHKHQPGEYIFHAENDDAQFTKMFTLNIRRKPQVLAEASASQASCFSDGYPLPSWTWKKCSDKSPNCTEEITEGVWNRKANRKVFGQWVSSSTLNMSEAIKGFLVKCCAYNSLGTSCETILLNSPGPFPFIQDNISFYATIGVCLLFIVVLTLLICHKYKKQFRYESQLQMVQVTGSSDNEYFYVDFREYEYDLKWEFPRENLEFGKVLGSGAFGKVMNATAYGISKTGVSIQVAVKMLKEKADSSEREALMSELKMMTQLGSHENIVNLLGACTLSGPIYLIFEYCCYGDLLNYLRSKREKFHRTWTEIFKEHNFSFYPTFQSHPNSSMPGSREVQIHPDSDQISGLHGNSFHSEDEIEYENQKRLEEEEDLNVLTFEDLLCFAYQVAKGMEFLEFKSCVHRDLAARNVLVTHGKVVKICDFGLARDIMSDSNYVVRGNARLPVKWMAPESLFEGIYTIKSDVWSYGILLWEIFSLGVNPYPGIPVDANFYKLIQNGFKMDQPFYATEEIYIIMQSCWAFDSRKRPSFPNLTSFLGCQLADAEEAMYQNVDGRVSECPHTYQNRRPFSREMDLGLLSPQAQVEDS
Chain of PDGFRA (P16234 24-1089): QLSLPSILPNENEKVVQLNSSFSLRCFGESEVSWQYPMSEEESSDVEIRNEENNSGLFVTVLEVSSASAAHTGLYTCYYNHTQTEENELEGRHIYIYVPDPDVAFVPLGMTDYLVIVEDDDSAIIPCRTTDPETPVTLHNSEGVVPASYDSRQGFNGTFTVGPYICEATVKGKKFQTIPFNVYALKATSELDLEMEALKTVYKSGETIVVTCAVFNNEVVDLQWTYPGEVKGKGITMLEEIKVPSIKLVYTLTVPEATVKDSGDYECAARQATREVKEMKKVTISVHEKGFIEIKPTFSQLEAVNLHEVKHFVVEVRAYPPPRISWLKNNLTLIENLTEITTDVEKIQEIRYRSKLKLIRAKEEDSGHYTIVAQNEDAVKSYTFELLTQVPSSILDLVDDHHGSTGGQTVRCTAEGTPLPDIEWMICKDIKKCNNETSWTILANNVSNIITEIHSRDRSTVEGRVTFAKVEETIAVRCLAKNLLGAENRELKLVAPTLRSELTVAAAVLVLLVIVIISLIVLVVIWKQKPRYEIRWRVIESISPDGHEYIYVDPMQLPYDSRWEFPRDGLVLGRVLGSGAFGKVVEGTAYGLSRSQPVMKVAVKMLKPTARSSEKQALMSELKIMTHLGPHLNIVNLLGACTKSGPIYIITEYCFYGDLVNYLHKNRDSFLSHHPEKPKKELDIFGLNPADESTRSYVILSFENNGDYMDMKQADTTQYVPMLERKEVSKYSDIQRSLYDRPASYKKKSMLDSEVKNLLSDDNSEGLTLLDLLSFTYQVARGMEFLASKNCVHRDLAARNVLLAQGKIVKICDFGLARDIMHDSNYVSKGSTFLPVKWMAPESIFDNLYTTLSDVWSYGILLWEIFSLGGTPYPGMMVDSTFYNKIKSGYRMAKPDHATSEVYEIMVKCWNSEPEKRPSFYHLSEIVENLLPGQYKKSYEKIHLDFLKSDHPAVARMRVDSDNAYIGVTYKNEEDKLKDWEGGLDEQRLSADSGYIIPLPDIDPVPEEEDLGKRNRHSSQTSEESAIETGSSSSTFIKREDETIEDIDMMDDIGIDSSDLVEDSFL
Chain of LCK (P06239 whole entry): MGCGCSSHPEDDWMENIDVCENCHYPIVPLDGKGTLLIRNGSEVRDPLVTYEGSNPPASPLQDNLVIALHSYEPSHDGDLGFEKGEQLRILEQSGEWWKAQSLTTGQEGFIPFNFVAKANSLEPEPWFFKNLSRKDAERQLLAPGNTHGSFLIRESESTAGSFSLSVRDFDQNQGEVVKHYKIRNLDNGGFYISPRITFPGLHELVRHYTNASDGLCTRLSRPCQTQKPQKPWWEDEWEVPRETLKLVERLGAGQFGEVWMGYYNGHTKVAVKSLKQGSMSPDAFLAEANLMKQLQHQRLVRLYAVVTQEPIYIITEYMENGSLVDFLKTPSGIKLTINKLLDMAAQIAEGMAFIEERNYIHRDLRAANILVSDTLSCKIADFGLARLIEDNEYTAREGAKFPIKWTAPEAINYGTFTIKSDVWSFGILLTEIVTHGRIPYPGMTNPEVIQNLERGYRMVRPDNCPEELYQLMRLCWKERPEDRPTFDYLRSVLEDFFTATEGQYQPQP
Chain of CSF1R (FMS) (P07333 20-972): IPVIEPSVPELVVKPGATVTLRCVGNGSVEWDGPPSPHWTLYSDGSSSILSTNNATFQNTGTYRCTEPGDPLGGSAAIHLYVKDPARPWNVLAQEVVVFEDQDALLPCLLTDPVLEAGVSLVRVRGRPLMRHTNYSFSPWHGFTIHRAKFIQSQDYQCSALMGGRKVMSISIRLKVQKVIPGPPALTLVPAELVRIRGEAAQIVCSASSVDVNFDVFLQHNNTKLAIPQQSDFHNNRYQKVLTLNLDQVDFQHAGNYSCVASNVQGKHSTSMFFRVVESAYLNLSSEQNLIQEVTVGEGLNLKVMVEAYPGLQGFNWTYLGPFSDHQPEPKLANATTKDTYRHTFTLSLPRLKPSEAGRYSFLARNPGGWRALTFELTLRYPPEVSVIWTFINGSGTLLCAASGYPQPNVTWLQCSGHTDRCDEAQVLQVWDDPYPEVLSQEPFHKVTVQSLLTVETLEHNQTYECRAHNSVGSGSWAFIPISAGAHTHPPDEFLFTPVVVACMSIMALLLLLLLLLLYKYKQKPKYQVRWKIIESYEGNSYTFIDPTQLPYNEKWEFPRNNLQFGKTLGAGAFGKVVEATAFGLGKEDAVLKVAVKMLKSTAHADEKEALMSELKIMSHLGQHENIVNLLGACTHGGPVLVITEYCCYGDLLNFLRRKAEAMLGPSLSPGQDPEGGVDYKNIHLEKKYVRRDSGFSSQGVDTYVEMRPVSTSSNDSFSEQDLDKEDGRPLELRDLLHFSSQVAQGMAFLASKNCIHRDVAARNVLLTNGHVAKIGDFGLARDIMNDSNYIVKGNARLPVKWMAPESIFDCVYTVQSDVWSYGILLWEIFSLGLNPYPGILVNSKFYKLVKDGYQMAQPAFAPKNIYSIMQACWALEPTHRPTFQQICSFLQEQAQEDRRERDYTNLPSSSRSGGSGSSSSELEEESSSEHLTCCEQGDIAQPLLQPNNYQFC
Chain of PDGFRB (P09619 33-1106): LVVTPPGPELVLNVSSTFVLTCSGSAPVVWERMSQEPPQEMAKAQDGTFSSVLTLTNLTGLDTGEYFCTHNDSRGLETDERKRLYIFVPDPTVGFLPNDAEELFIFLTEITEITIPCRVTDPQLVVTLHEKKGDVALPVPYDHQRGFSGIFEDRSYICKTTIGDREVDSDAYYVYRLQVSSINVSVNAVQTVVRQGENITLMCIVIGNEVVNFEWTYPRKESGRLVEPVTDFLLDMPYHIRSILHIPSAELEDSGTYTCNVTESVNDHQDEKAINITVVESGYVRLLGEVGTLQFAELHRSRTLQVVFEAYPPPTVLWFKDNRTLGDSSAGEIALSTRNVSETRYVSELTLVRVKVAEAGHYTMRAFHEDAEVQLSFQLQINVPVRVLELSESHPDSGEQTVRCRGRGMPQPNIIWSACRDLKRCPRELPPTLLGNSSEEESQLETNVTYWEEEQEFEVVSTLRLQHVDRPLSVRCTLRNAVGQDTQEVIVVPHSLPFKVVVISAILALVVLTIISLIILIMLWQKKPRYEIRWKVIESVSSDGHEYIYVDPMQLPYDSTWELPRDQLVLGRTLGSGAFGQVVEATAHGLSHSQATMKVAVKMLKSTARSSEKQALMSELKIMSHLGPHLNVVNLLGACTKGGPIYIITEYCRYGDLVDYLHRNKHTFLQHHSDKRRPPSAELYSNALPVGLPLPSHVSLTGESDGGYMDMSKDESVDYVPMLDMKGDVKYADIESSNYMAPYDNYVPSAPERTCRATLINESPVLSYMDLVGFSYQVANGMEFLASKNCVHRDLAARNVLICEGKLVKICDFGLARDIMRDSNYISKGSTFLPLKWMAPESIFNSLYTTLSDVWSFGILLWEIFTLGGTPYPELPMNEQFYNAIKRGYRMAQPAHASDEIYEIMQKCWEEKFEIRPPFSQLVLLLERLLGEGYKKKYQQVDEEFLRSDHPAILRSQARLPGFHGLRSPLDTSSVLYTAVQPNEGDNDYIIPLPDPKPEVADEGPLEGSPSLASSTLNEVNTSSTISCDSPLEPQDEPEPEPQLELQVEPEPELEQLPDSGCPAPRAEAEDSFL
Chain of KIT (P10721 544-976 limits assumed): as the sequence (P10721 544-976 D816H) above, with H273D counted along it
T1 sequence (P10721 544-976 D816Y): as the sequence (P10721 544-976 D816H) above, with H273Y counted along it

`Cn1cc(-c2ccc(CNc3cc(-c4cnc5cc(OCCCN6CCCC6)ccn45)ncn3)cc2)cn1` [M4205] was tested, and the “Biochemical pIC50” value [1] was 7.8, the kinase inhibition [2] was “more than 80%” and the kinase inhibition [3] was “more than 80%”. The kinase inhibition [4] was “more than 80%”, the kinase inhibition [5] was “more than 80%” and the kinase inhibition [6] was “more than 80%”. For the same molecule, the kinase inhibition [7] was “more than 80%”, the “reduction of P-AKT” value [8] was “reduced within the same potency range as KIT inhibition” and the “Biochemical pIC50” value [9] was 7.7.
